Source: patent publication US20050019825A9, “Common ligand mimics: pseudothiohydantoins” (priority 2002, published 2005)
Where two headings read alike, the source gives them in different places.

Experiments:
[1] = target: dihydrodipicolinate reductase (DHPR) (Escherichia coli, UniProt P04036); assay: DHPR kinetic assay, spectrophotometric oxidation of NADPH (340 nm); type: biochemical
Experimental: For DHPR analysis, the compounds were screened using a kinetic protocol that spectrophotometrically evaluates oxidation of NADPH.
Stock solutions of each of the reagents were prepared in the following concentrations. Dilutions of the stock solutions were prepared prior to running the assay in the concentrations indicated below. DHPR was diluted in 10 mM HEPES at a pH of 7.4. DHPS (dihydrodipicolinate synthase) was not diluted and was stored in eppindorf tubes.
The L-ASA (L-aspartate semialdehyde) solution was prepared in the following manner. 180 μM stock solution of ASA was prepared. 100 μl of the ASA stock solution was mixed with 150 μl of concentrated NaHCO3 and 375 μl of H2O. For use in the assay, 28.8 mM L-ASA was equal to 625 μl of the solution. The L-ASA stock solution was kept at a temperature of −20° C. After dilution, the pH of the 28.8 mM solution was checked and maintained between 1 and 2.
The DHPS reaction was monitored at 340 nm prior to and after addition of the inhibitor to detect background reaction with the inhibitor. The solution for background detection was a 945 μl solution containing 0.1 HEPES (pH 7.8), 1 mM pyruvate, 6 μM NADPH, 40 μM L-ASA, and 7 μl of 1 mg/ml DHPS at 25° C. in the volumes provided above. The sample solution was then mixed and incubated for 10 minutes. Next, 500 nM solutions of the inhibitors and enough DMSO to provide a final DMSO concentration of 5% of the total assay volume were added. The solution was mixed and incubated for an additional 6 minutes.
In DHPR samples, 5 μl of the diluted DHPR enzyme were added. The sample was mixed for 20 seconds and then the reaction was run for 10 minutes. After a 50 second lag, the samples were read in a Cary spectrophotometer at 340 nm. Reading of the samples was continued until 300 seconds. Cuvette #1 contained the control reaction (no inhibitor), and cuvette #2 contained the positive control reaction in which Cibacron Blue at 2.58 μM was substituted for inhibitor to yield 70 to 80% inhibition. The substrate was kept at a level at least 10 times the Km. The final concentration of L-ASA was about 1 mM.

[2] = target: 1-deoxy-D-xylulose-5-phosphate reductase (DOXPR) (Escherichia coli, UniProt P45568); assay: DOXPR kinetic assay, spectrophotometric oxidation of NADPH (340 nm); type: biochemical
Experimental: For DOXPR analysis, the compounds were screened using a kinetic protocol that spectrophotometrically evaluates oxidation of NADPH.
Stock solutions of each of the reagents were prepared in the following concentrations. Dilutions of the stock solutions were prepared prior to running the assay in the concentrations indicated below. DOXPR was diluted in 10 mM HEPES at a pH of 7.4.
The DOXPR reaction was monitored at 340 nm prior to and after addition of the inhibitor to detect background reaction with the inhibitor. Solutions of the inhibitors in DMSO were prepared to provide a final DMSO concentration of 5% of the total assay volume. These solutions were incubated for 6 minutes at 25° C. in a 990 μl of a solution containing 0.1 M HEPES, pH 7.4, 1 mM MnCl2 1.15 mM DOXP, and 8 μM NADPH. The oxidation reaction was then initiated with 10 μl of DOXP reductoisomerase (10 μg/ml). After the enzyme was added, the solution was mixed for 20 seconds, and the reaction was run for 10 minutes. After a 50 second lag, the samples were read in a Cary spectrophotometer at 340 nm. Reading of the samples was continued until 300 seconds. Cuvette #1 contained the control reaction (no inhibitor), and cuvette #2 contained the positive control reaction in which Cibacron Blue at 10.32 μM was substituted for inhibitor to yield 70 to 80% inhibition. The substrate was kept at a level at least 10 times the Km.

[3] = target: T1, lactate dehydrogenase (LDH) (Oryctolagus cuniculus, UniProt P13491); assay: LDH kinetic assay, spectrophotometric oxidation of NADH (340 nm); type: biochemical, Rabbit; details: for IC50: common ligand mimics, Examples 23/24, LDH from Rabbit Muscle
T1 construct: 10 μl of LDH from Rabbit Muscle; from tissue; host or cells: rabbit muscle
Experimental: For LDH analysis, the compounds were screened using a kinetic protocol that spectrophotometrically evaluates oxidation of NADH.
Stock solutions of each of the reagents were prepared in the following concentrations. Dilutions of the stock solutions were prepared prior to running the assay in the concentrations indicated below.
The LDH reaction was monitored at 340 nm prior to and after addition of the inhibitor to detect background reaction with the inhibitor. Solutions of 100 μl of the inhibitors in DMSO were prepared to provide a final DMSO concentration of 5% of the total assay volume. These solutions were incubated for 6 minutes at 25° C. in a 990 μl of a solution containing 0.1 M HEPES, pH 7.4, 10 μM NADH, and 2.5 mM of pyruvate. The reaction was then initiated with 10 μl of LDH from Rabbit Muscle (0.5 μg/ml; 1:2000 dilution of 1.0 mg/ml). After the enzyme was added, the solution was mixed for 20 seconds, and the reaction was run for 10 minutes. After a 50 second lag, the samples were read in a Cary spectrophotometer at 340 nm. Reading of the samples was continued until 300 seconds. Cuvette #1 contained the control reaction (no inhibitor), and cuvette #2 contained the positive control reaction in which Cibacron Blue at 10.3 μM was substituted for inhibitor to yield 50 to 70% inhibition. The substrate was kept at a level at least 10 times the Km.

[4] = common ligand mimics, Examples 23/24 (FIG. 5, FIG. 6), read-out: IC50 for DHPR
[5] = common ligand mimics, Examples 23/24, read-out: IC50 for DOXPR

Chain of 1-deoxy-D-xylulose-5-phosphate reductase (DOXPR) (P45568 whole entry): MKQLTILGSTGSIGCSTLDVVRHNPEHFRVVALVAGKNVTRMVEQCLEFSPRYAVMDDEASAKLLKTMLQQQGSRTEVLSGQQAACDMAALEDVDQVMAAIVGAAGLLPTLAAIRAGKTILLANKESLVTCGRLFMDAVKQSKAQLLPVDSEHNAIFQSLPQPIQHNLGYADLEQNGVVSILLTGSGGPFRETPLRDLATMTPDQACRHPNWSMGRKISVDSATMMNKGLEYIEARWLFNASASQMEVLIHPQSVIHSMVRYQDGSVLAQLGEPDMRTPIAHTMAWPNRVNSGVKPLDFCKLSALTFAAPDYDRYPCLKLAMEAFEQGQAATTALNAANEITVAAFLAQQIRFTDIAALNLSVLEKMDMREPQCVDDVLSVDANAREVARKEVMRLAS
Chain of dihydrodipicolinate reductase (DHPR) (P04036 whole entry): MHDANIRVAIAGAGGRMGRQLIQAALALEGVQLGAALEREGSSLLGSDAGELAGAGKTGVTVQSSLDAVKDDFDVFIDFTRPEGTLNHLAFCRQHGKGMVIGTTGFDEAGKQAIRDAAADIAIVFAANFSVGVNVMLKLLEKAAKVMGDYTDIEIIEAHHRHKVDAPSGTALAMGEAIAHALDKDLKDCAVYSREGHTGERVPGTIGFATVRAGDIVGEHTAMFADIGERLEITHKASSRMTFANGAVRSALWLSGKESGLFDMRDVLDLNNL

SMILES	IC50 [1, 4] [µM]	IC50 [2, 5] [µM]	IC50 [3] [µM]	IC50 [1] [µM]	IC50 [2] [µM]	inhibition at 2.58 µM ([1]; Cibacron Blue at 2.58 μM, read-out: inhibition of DHPR, positive control) [%]	inhibition at 10.32 µM ([2]; Cibacron Blue at 10.32 μM, read-out: inhibition of DOXPR, positive control) [%]	inhibition at 10.3 µM ([3]; Cibacron Blue at 10.3 μM, read-out: inhibition of LDH, positive control) [%]
N=C1NC(=O)C(=Cc2ccc(C(=O)O)cc2)S1 [4-(2-imino-4-oxo-thiazolidin-5-ylidenemethyl)-benzoic acid]	> 25	> 25	> 100	–	–	–	–	–
COc1cc(O)ccc1C=C1SC(=N)NC1=O [5-(4-hydroxy-2-methoxy-benzylidene)-2-imino-thiazolidin-4-one]	> 75	> 100	–	–	–	–	–	–
COc1cc(C=C2SC(N)=NC2=O)ccc1O [5-(4-hydroxy-3-methoxy-benzylidene)-2-imino-thiazolidin-4-one]	–	–	> 100	> 75	> 100	–	–	–
N=C1NC(=O)C(=Cc2ccc(O)c([N+](=O)[O-])c2)S1 [5-(4-hydroxy-3-nitro-benzylidene)-2-imino-thiazolidin-4-one]	–	–	27.9	> 100	> 100	–	–	–
Nc1c(S(=O)(=O)O)cc(Nc2ccc(Nc3nc(Cl)nc(Nc4ccccc4S(=O)(=O)O)n3)c(S(=O)(=O)O)c2)c2c1C(=O)c1ccccc1C2=O [Cibacron Blue, reference compound]	–	–	–	–	–	70 to 80	70 to 80	50 to 70
